Results taken from PubChem BioAssay (NCI).
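All cell lines were grown in 96-well plates and treated with compound for 48 hours. Abbreviation: GI50, concentration required for 50% inhibition of growth. TGI denotes the concentration required for complete inhibition of growth.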

How the values were obtained:
Test in all cases: growth of human tumour cells (NCI), 48 h
786-0 renal = system: 786-0 renal
A498 renal = system: A498 renal
A549 NSCLC = system: A549 NSCLC
ACHN renal = system: ACHN renal
BT-549 breast = system: BT-549 breast
CAKI-1 renal = system: CAKI-1 renal
CCRF-CEM leukemia = system: CCRF-CEM leukemia
COLO 205 colon = system: COLO 205 colon
DU-145 prostate = system: DU-145 prostate
EKVX NSCLC = system: EKVX NSCLC
HCC-2998 colon = system: HCC-2998 colon
HCT-116 colon = system: HCT-116 colon
HCT-15 colon = system: HCT-15 colon
HOP-62 NSCLC = system: HOP-62 NSCLC
HOP-92 NSCLC = system: HOP-92 NSCLC
HS 578T breast = system: HS 578T breast
HT29 colon = system: HT29 colon
IGROV1 ovarian = system: IGROV1 ovarian
K-562 leukemia = system: K-562 leukemia
KM12 colon = system: KM12 colon
LOX IMVI melanoma = system: LOX IMVI melanoma
M14 melanoma = system: M14 melanoma
MCF7 breast = system: MCF7 breast
MDA-MB-231 breast = system: MDA-MB-231 breast
MDA-MB-435 = system: MDA-MB-435
MOLT-4 leukemia = system: MOLT-4 leukemia
NCI-H226 lung = system: NCI-H226 lung
NCI-H23 lung = system: NCI-H23 lung

Work on `C/C1=C\CC[C@@](C)(O)[C@H]2C[C@H](CC/C(C)=C/CC1)C1(CC1)C(=O)O2` yielded a GI50 (786-0 renal) of 16.4 µM, a TGI (786-0 renal) of 30.6 µM and a GI50 (A498 renal) of 20.1 µM. The TGI (A498 renal) was 66.2 µM, the GI50 (A549 NSCLC) was 17.4 µM and the TGI (A549 NSCLC) was 32.3 µM. The GI50 (ACHN renal) was 16.8 µM, the TGI (ACHN renal) was 31.3 µM and the GI50 (BT-549 breast) was 23.7 µM. It also gave a TGI (BT-549 breast) of 55.7 µM, a GI50 (CAKI-1 renal) of 20.7 µM and a TGI (CAKI-1 renal) of 43.3 µM. For the same compound, the GI50 (CCRF-CEM leukemia) was 13.5 µM, the TGI (CCRF-CEM leukemia) was 39 µM and the GI50 (COLO 205 colon) was 32.5 µM. For the same compound, the TGI (COLO 205 colon) was greater than 100 µM, the GI50 (DU-145 prostate) was 16.6 µM and the TGI (DU-145 prostate) was 31.2 µM. It also gave a GI50 (EKVX NSCLC) of 37 µM, a TGI (EKVX NSCLC) greater than 100 µM and a GI50 (HCC-2998 colon) of 18 µM. It also gave a TGI (HCC-2998 colon) of 35.2 µM, a GI50 (HCT-116 colon) of 18.1 µM and a TGI (HCT-116 colon) of 32.2 µM. For the same compound, the GI50 (HCT-15 colon) was 17.6 µM, the TGI (HCT-15 colon) was 36.8 µM and the GI50 (HOP-62 NSCLC) was 18.5 µM. It also gave a TGI (HOP-62 NSCLC) of 35.4 µM, a GI50 (HOP-92 NSCLC) of 16 µM and a TGI (HOP-92 NSCLC) of 33.3 µM. For the same compound, the GI50 (HS 578T breast) was 29.9 µM, the TGI (HS 578T breast) was 96.5 µM and the GI50 (HT29 colon) was 36.6 µM. For the same compound, the TGI (HT29 colon) was greater than 100 µM, the GI50 (IGROV1 ovarian) was 18.9 µM and the TGI (IGROV1 ovarian) was 39.7 µM. For the same compound, the GI50 (K-562 leukemia) was 13.2 µM, the TGI (K-562 leukemia) was 29 µM and the GI50 (KM12 colon) was 37.2 µM. For the same compound, the TGI (KM12 colon) was greater than 100 µM, the GI50 (LOX IMVI melanoma) was 13.6 µM and the TGI (LOX IMVI melanoma) was 28.6 µM. It also gave a GI50 (M14 melanoma) of 31.4 µM, a TGI (M14 melanoma) greater than 100 µM and a GI50 (MCF7 breast) of 21 µM. For the same compound, the TGI (MCF7 breast) was 57.4 µM, the GI50 (MDA-MB-231 breast) was 17.5 µM and the TGI (MDA-MB-231 breast) was 35.1 µM. It also gave a GI50 (MDA-MB-435) of 25.4 µM, a TGI (MDA-MB-435) of 79.1 µM and a GI50 (MOLT-4 leukemia) of 16.6 µM. The TGI (MOLT-4 leukemia) was 55.9 µM, the GI50 (NCI-H226 lung) was 21.2 µM and the TGI (NCI-H226 lung) was 46.5 µM. It also gave a GI50 (NCI-H23 lung) of 38 µM and a TGI (NCI-H23 lung) greater than 100 µM.
